From patent US12234248B2, “Co-crystal compounds comprising lithium ions and isonicotinamide” (UNIVERSITY OF LIMERICK, priority 2017, dated 2025)
“And” between values parts separate entries of the source, which are not always exact repeats. Identical values can stand only once.

Experiments:
[1] = Stability of crystalline material under warm humid conditions (40° C., 75% relative humidity), PXRD before and after; type: physicochemical; conditions: stored at 40° C., 75% relative humidity; stable = retained crystal form for at least two weeks by PXRD
Description: The stability of these compounds under warm humid conditions was assessed as follows:
The crystalline material was stored at 40° C. in an atmosphere of 75% relative humidity.
Compounds were classed as stable if they retained their crystal form for at least two weeks as verified by examination of PXRD patterns collected before and after exposure to humidity.
It can be seen that the pattern obtained after 2 months at 75% relative humidity and 40° C. (upper trace) in this case is different.

[2] = Bioavailability in vivo in rats: lithium in plasma and brain by ICP-OES after oral administration; conditions: for BRAIN CONC., Time(h) 2.00 / PLASMA CONC, Time(h) 2.00: 2 h; for BRAIN CONC., Time(h) 2.00 / BRAIN CONC., Time(h) 24.00 / BRAIN CONC., Time(h) 48.00 / BRAIN CONC., Time(h) 72.00: lithium in brain; for BRAIN CONC., Time(h) 2.00 / PLASMA CONC, Time(h) 2.00 / BRAIN CONC., Time(h) 24.00 / PLASMA CONC, Time(h) 24.00 / BRAIN CONC., Time(h) 48.00 / PLASMA CONC, Time(h) 48.00 / BRAIN CONC., Time(h) 72.00 / PLASMA CONC, Time(h) 72.00: individual rats (three per time); for PLASMA CONC, Time(h) 2.00 / PLASMA CONC, Time(h) 24.00 / PLASMA CONC, Time(h) 48.00 / PLASMA CONC, Time(h) 72.00: lithium in plasma; for BRAIN CONC., Time(h) 24.00 / PLASMA CONC, Time(h) 24.00: 24 h; for BRAIN CONC., Time(h) 48.00 / PLASMA CONC, Time(h) 48.00: 48 h; for BRAIN CONC., Time(h) 72.00 / PLASMA CONC, Time(h) 72.00: 72 h
Description: Male Sprague-Dawley rats, weighing 240-290 g, were treated through gastric intubation with formulations of lithium and compared with lithium carbonate as a reference. For each formulation a group of 12 rats was treated. 4 mEq/kg of lithium were orally administered, after suspension in 2 mL of corn seeds oil (“Olio Cuore”).
Four intervals' post-administration time (2, 24, 48 and 72 hours) were considered and three rats for each of them, employing the protocol used by Zaworotko and coworkers (Smith et al., Mol. Pharmaceutics 2013, 10, 4728-4738). At each time interval blood samples were collected through intra-cardiac […], these were treated with 50 μL of sodium heparin and centrifuged for 10 min at 1600 rpm. Plasma samples of approximately […] each were thus obtained. The brain was explanted in toto with perfusion with phosphate buffered saline (PBS) in order to preserve it in a viable state. The plasma and brain samples were immediately frozen at a temperature of −80° C., after measuring the weight of the brains.
In order to determine the concentration of the lithium by means of the ICP-OES (Inductively Coupled Plasma Optical Emission Spectometry) analysis, plasma and brain samples were purified and mineralized, respectively to obtain solutions suitable for analysis.
A 0.5 mL aliquot was taken from each sample, to which were added equal amounts of MilliQ water and concentrated nitric acid, in order to bring the lithium ion in solution in the form of LiNO3 and to obtain the precipitation of the proteins. At this point, each sample was sonicated for 10 min in an ultrasonic bath and diluted to a volume of 5.0 mL.
All samples were subjected to centrifugation for a period of 40 min, at a rotational speed of 6000 rpm, to obtain complete plasma proteins/solution separation. At the end supernatant liquid containing lithium was diluted to a final volume of 15 mL by adding MilliQ water. The obtained solutions were stored at a temperature of 4° C. until analysis.
The purpose of this phase was to obtain liquid samples, suitable to ICP-OES analysis, containing lithium in solution, starting from the solid organic tissue of the brain. The mineralization process allows the complete degradation of organic substances until the total transformation into simple inorganic substances.
The first operation performed was that the drying of the fabric, obtained through the use of a digester open PerkinElmer SPB 100-12: each sample of brain has been inserted in special containers Digitube™ 100 mL and maintained at a temperature of 80° C. for 120 min.
The second step involved the mineralization true and proper brain: each sample were added to 10 mL of concentrated nitric acid and 1.0 mL of hydrogen peroxide, then the system was brought to a temperature of 120° C. for 120 min. until the complete mineralization. With this procedure you get the desired biological degradation of organic compounds and the consequent passage of lithium in solution. The solutions thus obtained were collected, brought to a final volume of 20 mL with MilliQ water and preserved at a temperature of 4° C. until time of analysis.
In order to obtain the determination of lithium ion concentrations in the samples previously prepared, optical emission spectrometry inductively coupled plasma ICP-OES was used (PerkinElmer Optima 8000 spectrometer).
The analysis was conducted at the fixed wavelength of lithium (λ=670.784 nm) and the intensity of the radiation emitted by each sample was measured and compared standard solutions.
Plasma and brain concentration data were processed using a non-compartmental approach using WinNonlin® software (Pharsight Corporation, USA) and Microsoft Excel XP (Microsoft Corporation, […]).

[3] = rat brain, 4 mEq/kg lithium oral, non-compartmental
[4] = rat brain, 4 mEq/kg lithium oral, terminal phase
[5] = rat brain, 4 mEq/kg lithium oral, time 0 to last quantifiable point
[6] = rat brain, relative to lithium carbonate
[7] = rat plasma, 4 mEq/kg lithium oral, non-compartmental
[8] = rat plasma, 4 mEq/kg lithium oral, terminal phase
[9] = rat plasma, relative to lithium carbonate

| Structure (SMILES) | Stable? [1] | AUC (Cerebral)/AUC (Plasma) ([2]; rat, in vivo) | AUC(0-t) ([2]; rat, in vivo, po) [µg·h/mL] | AUClast (brain) ([2]; rat, in vivo, po) [mg·h/g] | Cmax (brain) ([2]; rat, in vivo, po) [µg/g] | Cmax (plasma) ([2]; rat, in vivo, po) [ng/mL] | Relative Brain BA (UL crystal forms, oral vs Li2CO3, oral) ([2]; rat, in vivo, po) [%] | Relative Plasma BA (UL crystal forms, oral vs Li2CO3 oral) ([2]; rat, in vivo, po) [%] | Tmax (brain) ([2]; rat, in vivo, po) [h] | Tmax (plasma) ([2]; rat, in vivo, po) [h] | t½_Lambda_z (brain) ([2]; rat, in vivo, po) [h] | t½_Lambda_z (plasma) ([2]; rat, in vivo, po) [h] | Cmax (brain) [2, 3] [µg/g] | Tmax (brain) [2, 3] [h] | t½_Lambda_z (brain) [2, 4] [h] | AUClast (brain) [2, 5] [mg·h/g] | Relative Brain BA (UL crystal forms, oral vs Li2CO3, oral) [2, 6] [%] | Cmax (plasma) [2, 7] [ng/mL] | Tmax (plasma) [2, 7] [h] | t½_Lambda_z (plasma) [2, 8] [h] | other results |
| --- | --- | --- | --- | --- | --- | --- | --- | --- | --- | --- | --- | --- | --- | --- | --- | --- | --- | --- | --- | --- | --- |
| NC(=O)c1ccncc1.NC(=O)c1ccncc1.O=C([O-])/C=C/C(=O)[O-].[Li+].[Li+] [Compound 2, [Li2(fumarate)(isonicotinamide)2]n] | Yes | 1.208 | 147 | 0.177 | 4.0200 | 3976.7 | 76.37 | 54.52 | 24 | 24 | 16.7775 | 14.0638 | – | – | – | – | – | – | – | – | – |
| COc1ccc(C(=O)[O-])cc1.O=C(O)[C@@H]1CCCN1.[Li+] [Compound 5, [Li(4-methoxybenzoate)(L-proline)]n] | Yes | – | – | – | – | – | – | – | – | – | – | – | 4.9833 | 48 | 13.4751 | 229.3867 | 98.70 | 6080 | 24 | 16.5057 | concentration of lithium in the brain compared with lithium carbonate ([2]; rat brain, after 48 hours, FIG. 12): higher; Relative Plasma BA (UL crystal forms, oral vs Li2CO3 oral) [2, 9]: 90.41%; BRAIN CONC., Time(h) 2.00 ([2]; rat, 4 mEq/kg lithium oral): 0.23 µg/g and 0.48 µg/g and 0.46 µg/g; PLASMA CONC, Time(h) 2.00 ([2]; rat, 4 mEq/kg lithium oral): 2820 ng/mL and 4020 ng/mL and 2650 ng/mL; BRAIN CONC., Time(h) 24.00 ([2]; rat, 4 mEq/kg lithium oral): 4.44 µg/g and 4.46 µg/g and 2.54 µg/g; PLASMA CONC, Time(h) 24.00 ([2]; rat, 4 mEq/kg lithium oral): 7150 ng/mL and 6800 ng/mL and 4290 ng/mL; BRAIN CONC., Time(h) 48.00 ([2]; rat, 4 mEq/kg lithium oral): 4.42 µg/g and 4.76 µg/g and 5.77 µg/g; PLASMA CONC, Time(h) 48.00 ([2]; rat, 4 mEq/kg lithium oral): 1450 ng/mL and 1910 ng/mL and 3650 ng/mL; BRAIN CONC., Time(h) 72.00 ([2]; rat, 4 mEq/kg lithium oral): 1.08 µg/g and 0.43 µg/g and 2.84 µg/g; PLASMA CONC, Time(h) 72.00 ([2]; rat, 4 mEq/kg lithium oral): 630 ng/mL and 480 ng/mL and 1320 ng/mL |
| COc1cccc(C(=O)[O-])c1.O=C(O)[C@@H]1CCCN1.[Li+] [Compound 6, [Li(3-methoxybenzoate)(L-proline)]n] | Yes | – | – | – | – | – | – | – | – | – | – | – | 4.3733 | 24 | 15.3888 | 172.7467 | 74.33 | 6383.3 | 24 | 10.4363 | Relative Plasma BA (UL crystal forms, oral vs Li2CO3 oral) [2, 9]: 74.07%; BRAIN CONC., Time(h) 2.00 ([2]; rat, 4 mEq/kg lithium oral): 0.64 µg/g and 0.44 µg/g and 0.73 µg/g; PLASMA CONC, Time(h) 2.00 ([2]; rat, 4 mEq/kg lithium oral): 3030 ng/mL and 1430 ng/mL and 3380 ng/mL; BRAIN CONC., Time(h) 24.00 ([2]; rat, 4 mEq/kg lithium oral): 4.54 µg/g and 4.21 µg/g and 4.37 µg/g; PLASMA CONC, Time(h) 24.00 ([2]; rat, 4 mEq/kg lithium oral): 5950 ng/mL and 4760 ng/mL and 8440 ng/mL; BRAIN CONC., Time(h) 48.00 ([2]; rat, 4 mEq/kg lithium oral): 2.84 µg/g and 2.06 µg/g and 2.46 µg/g; PLASMA CONC, Time(h) 48.00 ([2]; rat, 4 mEq/kg lithium oral): 670 ng/mL and 740 ng/mL and 870 ng/mL; BRAIN CONC., Time(h) 72.00 ([2]; rat, 4 mEq/kg lithium oral): 0.59 µg/g and 0.49 µg/g and 0.43 µg/g; PLASMA CONC, Time(h) 72.00 ([2]; rat, 4 mEq/kg lithium oral): 230 ng/mL and 310 ng/mL and 250 ng/mL |
| NC(=O)c1ccncc1.NC(=O)c1ccncc1.O=C([O-])CCC(=O)[O-].[Li+].[Li+] [Compound 7, [Li2(succinate) (isonicotinamide)2]n] | Yes | 1.077 | 197 | 211.7400 | 5.1533 | 4140 | 91.11 | 72.96 | 48 | 24 | 7.7957 | 15.0424 | – | – | – | – | – | – | – | – | – |
